In patent US20240294550A1, “8-OXA-3-AZABICYCLO[3.2.1]OCTANE COMPOUNDS OR SALT THEREOF, AND PREPARATION METHOD AND USE THEREOF” (LITTDD MEDICINES LTD, priority 2021, published 2024):
≈ marks a conversion by molar mass, not a printed value.

Tests used:
LOVO cells = experiment: Cell proliferation assay (CellTiter-Glo); format: cell-based; conditions: Homo sapiens, 96 hours
Experimental: The cell proliferation inhibition effect of the compound of the invention was tested using CellTiter-Glo™ cell viability assay kit. This kit uses luciferase as the detector. During the luminescence process, the luciferase requires the participation of ATP. CellTiter-Glo™ reagent was added to the cell culture medium, and the luminescence value was measured. The light signal is proportional to the amount of ATP present in the system, and ATP positively correlates with the number of viable cells present, thus the cell proliferation activity is measured.
Cell culture and seeding: LOVO cells in logarithmic growth phase (human colon carcinoma cells) (ATCC CCL-229) were harvested and counted using a platelet counter. Trypan blue exclusion method was used to detect the cell viability to ensure that the cell viability was above 90%. 90 μL of cell suspension (RPMI1640+10% fetal bovine serum) was added to a 96-well transparent flat-bottom black-wall plate (Thermo, 165305) respectively, and the cell concentration was adjusted to 3000/well/90 μl. Cells in the 96-well plate were incubated overnight at 37° C., 5% CO2 with 95% humidity (Thermo, Model 3100 Series).
Firstly, DMSO was used as the solvent to prepare 10 mM mother solution of the test compounds, and then PBS was used to dilute 100 times to prepare a solution of 10 times of final concentration, the highest concentration was 100 μM. 10 μL solution of the test compounds was added to each well of the 96 well plate inoculated with cells, namely the solution was further diluted 10 times to reach the final concentration of 10 μM. Starting from 10 μM, the final concentration of the test compound was 3-fold serially diluted, with 9 concentrations in total with 3 triplicates for each concentration. The 96 well plates with the test compounds and cells were incubated at 37° C., 5% CO2 and 95% humidity for 96 hours, and then CellTiter Glo analysis was performed.
CellTiter-Glo Reagents (CellTiter Glo R Luminescent Cell Viability Assay, Promega, G7572) were melted and the 96-well plates were equilibrated to room temperature for 30 minutes. An equal volume of CellTiter-Glo solution was added to each well, and the cells were lysed by shaking on the fixed orbit shaker for 5 minutes. The assay plates were left at room temperature for 20 minutes to stabilize the luminescence signal, and the luminescence signals were read using the SpectraMax multi-labeled microplate detector (MD, M3).
Data were analyzed using GraphPad Prism 7.0 software, fitted with non-linear S-curve regression to derive the dose-response curves, and IC50 values were calculated therefrom.
Cell survival rate (%)=(LumDrug to be tested−LumCulture medium control)/(LumCell control−LumCulture medium control)×100%

[1] = Equilibrium solubility in FaSSIF; format: physicochemical; conditions: thermodynamic from solid; FaSSIF pH 6.5, shaken 24 hours
Experimental: The compound powder was weighed into a volumetric flask, 450 μL of pH 6.5 FaSSIF solution was added to obtain a supersaturated suspension, the samples were vortexed for at least 2 minutes, and the volumetric flasks were shaken on a vibrating screen at 800 rpm for 24 hours, and then centrifuged at 4000 rpm for 20 minutes. The compressed filtrate was added to a HPLC system, and the concentrations were calculated by a standard curve method.

- IC50 (LOVO cells): 304 nM
- solubility at 24 h [1]: 1140 µg/mL (≈ 2880 µM)
Structure (SMILES): C[C@@H]1COCCN1c1cc(N2CC3CCC(C2)O3)nc2c(-c3cc[nH]n3)cnn12 [Example 1, 3-(7-((R)-3-methylmorpholino)-3-(1H-pyrazol-3-yl)pyrazolo[1,5-a]pyrimidin-5-yl)-8-oxa-3-azabicyclo[3.2.1]octane]
